Test results published in BindingDB's records for doi:10.1016/j.ejmech.2017.04.042 (Laval University, 2017).

Experiments:
Cytochrome P450 1B1 [1] = biological target: T1, Cytochrome P450 1B1 (Homo sapiens, UniProt Q16678); assay: Inhibition of human CYP1B1 expressed in supersomes using ethoxyresorufin as substrate after 20 mins in presence of NADP by Dixon plot analysis
T1 sequence (Q16678 whole entry): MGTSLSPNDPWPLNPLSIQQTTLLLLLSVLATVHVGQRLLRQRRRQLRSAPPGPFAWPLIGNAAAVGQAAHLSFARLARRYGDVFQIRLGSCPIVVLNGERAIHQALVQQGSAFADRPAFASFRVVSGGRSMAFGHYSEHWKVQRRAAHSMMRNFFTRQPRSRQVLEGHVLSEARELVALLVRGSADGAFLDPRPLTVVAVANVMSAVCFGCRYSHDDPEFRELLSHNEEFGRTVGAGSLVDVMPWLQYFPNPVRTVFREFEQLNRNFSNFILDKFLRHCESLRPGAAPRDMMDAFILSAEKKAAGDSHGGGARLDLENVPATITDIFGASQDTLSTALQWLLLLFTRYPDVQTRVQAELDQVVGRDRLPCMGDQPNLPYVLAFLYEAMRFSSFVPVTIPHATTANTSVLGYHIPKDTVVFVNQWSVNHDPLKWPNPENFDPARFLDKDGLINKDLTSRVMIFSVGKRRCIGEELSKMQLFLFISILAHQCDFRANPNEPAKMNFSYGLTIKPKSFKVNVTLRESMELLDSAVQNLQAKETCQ

Cytochrome P450 1A1 = biological target: T2, Cytochrome P450 1A1 (Homo sapiens, UniProt P04798); assay: Inhibition of CYP1A1 (unknown origin) expressed in Escherichia coli DH5alpha coexpressing human NADPH-P450 reductase using 7-Ethoxyresorufin as substrate up to 6 mins in presence of NADP+ by spectrofluorometric analysis
T2 sequence (P04798 whole entry): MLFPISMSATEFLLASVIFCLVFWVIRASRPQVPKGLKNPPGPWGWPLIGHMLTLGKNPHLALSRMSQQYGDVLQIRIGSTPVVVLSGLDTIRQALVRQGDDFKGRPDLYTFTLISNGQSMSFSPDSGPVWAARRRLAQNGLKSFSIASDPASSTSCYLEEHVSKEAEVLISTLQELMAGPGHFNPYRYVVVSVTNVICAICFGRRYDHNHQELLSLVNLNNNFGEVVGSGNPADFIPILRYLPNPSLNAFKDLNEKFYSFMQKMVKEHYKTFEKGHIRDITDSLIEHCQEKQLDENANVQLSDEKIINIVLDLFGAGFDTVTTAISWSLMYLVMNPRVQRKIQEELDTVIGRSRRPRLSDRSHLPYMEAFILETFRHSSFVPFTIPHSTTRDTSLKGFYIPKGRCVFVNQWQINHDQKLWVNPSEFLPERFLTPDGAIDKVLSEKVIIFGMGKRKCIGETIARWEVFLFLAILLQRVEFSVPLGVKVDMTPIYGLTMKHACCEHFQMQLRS

Cytochrome P450 1A2 = biological target: T3, Cytochrome P450 1A2 (Homo sapiens, UniProt P05177); assay: ChEBML_1684878
T3 sequence (P05177 whole entry): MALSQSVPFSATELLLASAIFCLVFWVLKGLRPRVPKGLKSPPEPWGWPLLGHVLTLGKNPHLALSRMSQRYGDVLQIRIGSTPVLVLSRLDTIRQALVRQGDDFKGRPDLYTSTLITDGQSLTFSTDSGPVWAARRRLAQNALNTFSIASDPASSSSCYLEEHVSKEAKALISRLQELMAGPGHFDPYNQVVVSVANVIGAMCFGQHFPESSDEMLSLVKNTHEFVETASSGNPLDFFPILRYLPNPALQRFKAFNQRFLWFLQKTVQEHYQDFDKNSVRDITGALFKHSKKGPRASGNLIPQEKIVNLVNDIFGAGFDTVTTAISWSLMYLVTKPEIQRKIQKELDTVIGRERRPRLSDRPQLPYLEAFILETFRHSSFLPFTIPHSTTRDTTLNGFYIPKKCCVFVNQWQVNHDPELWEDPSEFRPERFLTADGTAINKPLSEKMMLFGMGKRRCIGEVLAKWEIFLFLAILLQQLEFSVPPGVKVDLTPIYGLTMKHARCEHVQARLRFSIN
Experimental: Competitive inhibition of human liver microsomes CYP1A2 expressed in supersomes coexpressing NADPH-CYP reductase using 7-Ethoxyresorufin as substrate measured every 5 mins for 30 mins in presence of NADPH by fluorescence assay

Cytochrome P450 1B1 [2] = biological target: T1, Cytochrome P450 1B1; assay: Inhibition of CYP1B1 (unknown origin) expressed in Escherichia coli DH5alpha coexpressing human NADPH-P450 reductase using 7-Ethoxyresorufin as substrate up to 6 mins in presence of NADP+ by spectrofluorometric analysis

SMILES	Ki (Cytochrome P450 1B1 [1]) [nM]	IC50 (Cytochrome P450 1A1) [nM]	IC50 (Cytochrome P450 1A2) [nM]	IC50 (Cytochrome P450 1B1 [2]) [nM]
C[C@]12CC[C@H]3[C@@H](CCC4=CC(=O)CC[C@@]43C)[C@@H]1CC[C@@H]2O [Testosterone, 1]	412000	–	–	–
N#C[Se]Cc1cccc(C[Se]C#N)c1	–	100	200	130
